From patent US20060198882A1, “Stable liposomes or micelles comprising a sphinolipid and a peg-lipopolymer” (priority 2003, published 2006)

Legend:
[1] = Conversion of C6Cer in cell derived or fresh medium; assay type: in vitro ADME
[2] = test system: caspase-3 activity in OV-1063 tumor cells; assay: EnzChek Caspase-3 assay; assay type: cell-based, human; conditions: 16 hr, IC50 values
Text: Biochemically, apoptosis was verified by the EnzChek™ Caspase-3 Assay Kit (Molecular Probes). This allows the detection of apoptosis by assaying for increases in caspase-3 and other DEVD-specific protease activities (e.g., caspase-7). The basis for the assay is rhodamine 110 bis-(N-CBZ-aspartyl-L-glutamyl-L-valyl-aspartic acid amide) referred to as Z-DEVD-R110. This substrate is a bisamide derivative of rhodamine 110 (R110) containing DEVD peptides covalently linked to each of R110's amino groups. Upon enzymatic cleavage, the nonfluorescent bisamide substrate is converted to the fluorescent R110, which was quantified by a fluorescence microplate reader (Tecan) using excitation at 485±10 nm and emission at 535±10 nm. […] The AC-DEVD-inhibitor was used to confirm that the observed fluorescence signal in treated samples is due to the activity of caspase-3 protease. Both induced and control cells were then harvested and lysed. Enzyme reactions were performed in 96-well plates with 50 μg of cytosolic proteins (55 min. of incubation) and a final concentration of 25 μM Z-DEVD-R110 substrate, as described in the kit protocol.

## CCCCCCCCCCCCC/C=C/[C@@H](O)[C@H](CO)NC(=O)CCCCC [C6Cer, N-hexanoyl-D-erythro-sphingosine]
[1]; cell derived medium (taken from C26 cells)
  ceramide converted into C6 SPM: 9%
[1]; fresh medium
  metabolic activity: no metabolitic activity

## CCCCCCCCCCCCC/C=C/[C@@H](O)[C@H](CO)NC(=O)CCCCCCCCCCCCCCC [C16Cer, N-palmitoyl-D-erythro-sphingosine]
[2]
  increase in caspase-3 activity vs control, untreated cells: no activation
